Format in all cases: cell-based, human
One assay relates to PTGS2 (COX2). Description: qRT-PCR of NF-κB target gene PTGS2 in TNF-α challenged cells. Conditions: 10 ng/ml TNF-α for 24 hours; listed as SH-11052 (2). The protocol: Similarly, the mRNA expression of the pro-inflammatory molecules IL8, PTGS2 (COX2) and CCL2 (MCP-1), inducible by NF-κB, were analyzed in the presence of SH-11052 (2). Cells (10^5 per well) were seeded in a 6-well plate and incubated for 24 hours at 37° C. and 5% CO2. The cells were then starved in 0.1% serum-EBM-2 for 12 hours followed by incubation for an hour in the presence of different concentrations of SH-11052 (2). The cells were then challenged for 24 hours with 10 ng/ml TNF-α. Following incubation, cells were lysed and RNA was isolated using Trizol reagent (Life Technologies). cDNA was prepared from 80 ng total RNA using random primers and M-MuLV Reverse Transcriptase (New England Biolabs, Ipswich, Mass., USA). RT-PCR reactions were set up using the TaqMan Fast Gene Expression Assay Kit according to the manufacturer's instructions. FAM-labeled TaqMan probes for PTGS2 (Hs00153133_m1), CCL2 (Hs00234140_m1), IL8 (Hs00174103_m1), and control, TBP (Hs99999910_m1), genes were used to monitor the expression levels of these genes. The qRT-PCR plate was read in a ViiATM 7 qPCR system (Life Technologies) and the data were analyzed using the ΔΔCt method. The expression levels of genes were normalized to TBP gene expression and calibrated to the DMSO-treated, unstimulated sample.
In general terms: In qPCR the cycle at which signal appears reflects the starting amount.

The next assay relates to p38 MAPK. Description: Phosphorylation of p38 MAPK in HRECs after TNF-α (immunoblot). As for the experimental part: HRECs were seeded at 10^5 cells/well in a 6-well plate and after 24 hours of incubation at 37° C., cells were serum starved in 0.1% serum-EBM-2 for 8 hours. Cells were then treated with the indicated concentrations of SH-11052 (2) for one hour before the addition of 20 ng/ml of TNF-α. After 20 minutes, cells were lysed in NP-40 Lysis buffer containing 25 mM HEPES pH 7.4, 1% NP-40, 150 mM NaCl, 10% glycerol, 1 mM sodium orthovanadate, 10 mM sodium fluoride, 1 mM sodium pyrophosphate, 1 mM PMSF, 2.5 mg/ml aprotinin, 1 mM pepstatin, and 1 mM leupeptin. Equal amounts of proteins (80 μg), as measured by a Bradford assay, were run on 10% SDS-PAGE, transferred to PVDF membrane, blocked with 5% BSA in TBS-0.05% Tween-20 and immunoblotted with the indicated primary antibodies (1:1000 in 1% BSA in TBS-0.05% Tween-20) overnight at 4° C. After three washes in TBS-0.05% Tween-20, HRP-conjugated secondary antibodies (1:5000 in 5% BSA in TBS-0.05% Tween-20) were applied for one hour at room temperature. After three washes, the protein bands were detected and densitized using ECL Prime western blot detection reagent (GE Life Sciences, Piscataway, N.J., USA) and an XRS gel documentation system running Quantity One software (Bio-Rad). Target protein band intensity was normalized to housekeeping gene α-tubulin. […]

The next assay concerns HUVECs. Description: EdU incorporation (DNA synthesis) in HUVECs. Conditions: 24 hours treatment, 10 μM EdU pulse; listed as SH-11052 (2). The protocol: In order to confirm the inhibition of cell proliferation, incorporation of 5-ethynyl-2′-deoxyuridine (EdU) into endothelial cells in the presence of SH-11052 (2) was further monitored. Particularly, cells (25,000 per coverslip) were seeded onto coverslips coated with Attachment Factor (Cell Systems, Kirkland, Wash., USA) placed in a 6-well plate and incubated with the indicated concentrations of SH-11052 (2) in EGM-2 for 24 hours at 37° C. and 5% CO2. The cells were then serum starved for 8 hours and the medium was replaced with EGM-2 containing 10 μM EdU. The plate was further incubated for another 8 hours before processing the cells for detection of labeled DNA (according to the manufacturer's instructions for the Click-iT EdU assay kit). Images were taken using an EVOS fluorescence microscope (AMG, Mill Creek, Wash., USA) and the number of DAPI stained and EdU stained cells were counted in six randomly chosen fields using ImageJ software.

In the next assay the test system is VCAM-1. As to the kind of experiment: VCAM-1 protein expression in HRECs exposed to TNF-α (immunofluorescence). Conditions: 10 ng/ml TNF-α for 24 hours. The protocol:
Cells (25,000 per coverslip) were seeded onto coverslips coated with Attachment Factor (Cell Systems, Kirkland, Wash., USA) and incubated at 37° C. and 5% CO2 for 24 hours in EGM-2. The cells were starved in 0.1% serum-EBM-2 for 8 hours followed by incubation in 0.1% serum-EBM-2 medium for an hour in the presence of different concentrations of SH-11052 (2). The cells were challenged with 10 ng/ml of TNF-α for 24 hours and fixed with 4% paraformaldehyde solution for 20 minutes at room temperature. The coverslips were quickly washed three times in TBS and blocked using 10% block solution (DAKO) prepared in 1×TBS-1% BSA buffer. The coverslips were incubated with the antibody against VCAM-1 (1:100 dilution), a cell adhesion molecule specifically expressed on endothelial cells, whose expression is induced by NF-κB upon TNF-α signaling, for 16 hours at 4° C. followed by three washes in TBS-0.1% BSA buffer. Dylight 555-conjugated secondary antibody (1:200) was used to probe for the VCAM-1 antibody. After three washes in TBS-0.1% BSA, the coverslips were mounted using Vectashield mounting medium containing DAPI nuclear stain. The cells were imaged using an LSM 700 confocal microscope. The image was analyzed for fluorescence signal intensity using MetaMorph software (Molecular Devices, Sunnyvale, Calif., USA).

“Also recorded” adds a separate entry of the source.

On to `COc1ccc(CC2COc3cc(OC)c(O)c(O)c3C2=O)cc1O` (single isomer, unassigned) [Compound 2], for which, in the assay with PTGS2 (COX2), the “mRNA expression of PTGS2 (COX2)” value is listed as “decreased the expression”. The “phosphorylation of p38 MAPK” value in the assay with p38 MAPK is reported as “inhibited phosphorylation”. Moreover, the “DNA synthesis (EdU incorporation) in HUVECs” value with HUVECs is on record as “blocked EdU incorporation; also recorded: significantly inhibited in a dose dependent manner”. Also, the VCAM-1 protein expression entry in the assay on VCAM-1 is “significant dose-dependent decrease”.

These data come from US10738024B2, “Compounds for treatment of angiogenesis-mediated diseases” (Indiana University Research and Technology Corporation, priority 2013, dated 2020).
